Results as given in US9801383B2, “Synergistic pesticidal compositions and related methods” (priority 2013, dated 2017).

Assays:
Type in all cases: in vivo
[1] = system: plant bugs, Lygus hesperus; assay: Bean piece dip bioassay against Western plant bugs; settings: single active
Method: (§1) The active compositions were formulated in a 10% acetone solution with 0.025% non-ionic surfactant, TWEEN® 20. Bean pieces (about one inch-long) were used for the tests. Four bean pieces were placed in each tested active solution and left there for 10 minutes. Bean pieces were taken out of the active solution, and each piece was placed in a well in a 32-well tray and allowed to air dry. Three third-instar nymphs of Western plant bugs, Lygus hesperus, were infested into each well.

[2] = system: Western flower thrips, Frankliniella occidentalis; assay: Cotton leaf punch dip bioassay against Western flower thrips; settings: single active
Method: (§2) The active compositions were formulated in a 10% acetone solution with 0.025% non-ionic surfactant, TWEEN® 20. Cotton leaf punches were used for bioassays. Two cotton leaf punches were placed in each solution and left there for 10 minutes. Leaves were taken out of the solution, placed on a piece of filter paper in separated Petri dishes, and air dried. Each leaf disc was considered a repetition. Five nymphs of Western flower thrips, Frankliniella occidentalis, were infested per repetition.
as §2, with “compounds” for “compositions”

[3] = system: diamondback moth, Plutella xylostella; assay: Cabbage plant track-sprayer bioassay against diamondback moth; settings: single active, 0.0025 weight %, second instar
Method: A pesticidal composition was prepared by thoroughly mixing about 0.04 weight % of N-(3-chloro-1-(pyridin-3-yl)-1H-pyrazol-4-yl)-N-ethyl-3-((3,3,3-trifluoropropyl)sulfinyl) propanamide (hereinafter “compound II”) with about 0.000156 weight % of chlorpyrifos.
The bioassays were performed for different active compounds. Cabbage plants with about two to three new-growth-true leaf stage were treated with different active compounds using a track sprayer application at 400 L/Ha spray volume. Three second instar diamondback moth, Plutella xylostella, were infested onto each leaf disc. The percent control of the pesticidal composition against diamondback moth, Plutella xylostella, was determined as the “Observed” action, and compared to those obtained by using about 0.0025 weight % of compound II, and using about 0.0025 weight % of chlorpyrifos alone. The “Colby's Expected Action” was calculated using Colby's equation as discussed previously.

[4] = system: brown stink bug, Euschistus heros; assay: Bean piece dip bioassay against brown stink bug; settings: single active
Method: as §1, with “brown stink bug, Euschistus heros,” for “Western plant bugs, Lygus hesperus,”
A pesticidal composition formulated in a 10% acetone solution with 0.025% non-ionic surfactant, TWEEN® 20 were tested against brown stink bugs, Euschistus heros, according to the procedure described in example 8A.

[5] = 0.04 weight %, third-instar nymphs

Structure (SMILES)	% Control Three Days After Treatment [1, 5] [%]	% Control Three Days After Treatment ([2]; 0.04 weight %, nymphs) [%]	% Control Three Days After Treatment ([2]; 0.04 weight %, nymphs, listed as compound II)	% Control Three Days After Treatment [3]	% Control Three Days After Treatment ([1]; 0.0003125 weight %) [%]	% Control Four Days After Treatment ([4]; 0.000156 weight %) [%]	% Control Four Days After Treatment ([4]; 0.000156 weight %, listed as chlorpyrifos)	% Control Four Days After Treatment ([4]; 0.000625 weight %) [%]	% Control Three Days After Treatment ([2]; 0.0000049 weight %) [%]	% Control Three Days After Treatment ([2]; 0.0000049 weight %, listed as chlorpyrifos)	% Control Three Days After Treatment ([2]; 0.0000195 weight %) [%]	% Control Three Days After Treatment ([2]; 0.0003125 weight %) [%]	% Control Three Days After Treatment ([2]; 0.00125 weight %) [%]	% Control Three Days After Treatment ([3]; listed as chlorpyrifos)	% Control Four Days After Treatment [4, 5]
CCN(C(=O)CC[S+]([O-])CCC(F)(F)F)c1cn(-c2cccnc2)nc1Cl (centres unmarked) [Compound II, N-(3-chloro-1-(pyridin-3-yl)-1H-pyrazol-4-yl)-N-ethyl-3-((3,3,3-trifluoropropyl)sulfinyl)propanamide]	0	0	no activity	substantially no pesticidal activity	–	–	–	–	–	–	–	–	–	–	–
CCOP(=S)(OCC)Oc1nc(Cl)c(Cl)cc1Cl [Chlorpyrifos, O,O-diethyl O-3,5,6-trichloropyridin-2-yl phosphorothioate]	–	–	–	0%	50	0	no activity	92	0	no activity	20	70	80	substantially no pesticidal activity	–
CCN(C(=O)CCSCCC(F)(F)F)c1cn(-c2cccnc2)nc1Cl [Compound I, N-(3-chloro-1-(pyridin-3-yl)-1H-pyrazol-4-yl)-N-ethyl-3-((3,3,3-trifluoropropyl)thio)propanamide]	–	20	–	–	–	–	–	–	–	–	–	–	–	–	no activity
